Results on eleven compounds are retold here after patent US7786112B2, “Inhibitors of cyclin-dependent kinases, compositions and uses related thereto” (Agennix USA Inc., priority 2003, dated 2010).

Experiment [1] has as its system HCT-116 cells. The experiment in a line: Cell cycle analysis with propidium iodide (FACS). Conditions: HCT-116, PI FACS. It is filed as cell-based, human. The method, then:
The percentage of cells in the G1, S and G2/M phases of the cell cycle was determined by staining DNA with propidium iodide and quantifying the number of cells with a 2N or 4N DNA complement by flow cytometry. Alterations in the distribution of cells across the cell cycle in response to exposure to the Cdk inhibitors was evaluated in this manner.
3 sets of HCT-116 cells (100,000 cells/set) were cultured in the presence of a test compound in T-25 flasks according to Table 1 below. Analysis was performed at 24, 48 and 72 hours. Adherent cells were collected by trypsinization, combined with floating cells in Falcon 12×75 flow cytometric tubes, and harvested by centrifugation. The media was decanted from the cell pellet, 100 μl of PI stain was added and the cells were incubated at 37° C. for 20-25 minutes. The cell count was preferably no greater than 2×10^6-4×10^6/ml. An equal volume (100 μl) of PI salt was then added to the cells, which were then incubated at 4° C. for 1-2 hours. The stained cells were analyzed on a Becton Dickinson FACScan flow cytometer. Samples were protected from light.

The subject of experiment [2] is HCT-116 cells. Nature of the experiment: Clonogenic survival assay. It is filed as cell-based, human. As to conditions: HCT-116 clonogenic time-course, at 100 nM. How it is done:
This assay was used to determine the concentration of a compound that results irreversible loss of viability after a specified period of exposure. Essentially, cells are exposed to compound for a period of 1, 2 or 5 days, and are then transferred to compound-free growth medium. After continued incubation in the compound-free medium for a number of days, the number of colonies recovered is counted as an estimate of the number of surviving cells.
Media (RPMI-1640, 10% FCS, pen/strep) was pre-warmed to 37° C. in a water bath. Cells were incubated and grown at 37° C., 5% CO2. Cells were recovered by trypsinization from sub-confluent plates and counted using a hemocytometer. 1×10^4 cells were plated in 25 mls of media in a 15 cm tissue culture dish. 14 plates were set up for each test compound, and were incubated overnight at 37° C. The compound was diluted into media at 7 concentrations and the media on the cells was replaced with that containing the test compound. Two plates were set up for each concentration of the compound to be tested, as well as two control plates without compound. […] Colonies were stained with crystal violet solution (0.4% crystal violet, 20% ethanol) for 5 minutes, washed twice with distilled water, and counted.

The next experiment has as its system HCT-116. Nature of the experiment: Calcein AM viability assay, HCT-116. It is filed as cell-based. Conditions: Homo sapiens, HCT-116, non-protein adjusted, Table 6. How it is done:
The potency of Cdk inhibitors, as measured by loss of cellular viability, was determined with the Calcein AM assay (Molecular Probes). Calcein AM is a substrate of intracellular esterases, which is cleaved only in viable cells to generate a fluorescent product that can be quantified with a fluorescent plate reader. The fluorescent signal is proportional to the number of viable cells, and thus loss of signal in response to the exposure of cells to Cdk inhibitors correlates with a loss of viability. This assay can distinguish cell cycle arrest, in which cells may still by viable, from loss of viability and is thus well suited for the evaluation of Cdk inhibitors. A compound that is a potent cytotoxic, may cause significant loss of cell viability in such assay.
Cellular IC50's were determined in the human colorectal carcinoma cell line, HCT-116, and the normal human fibroblast, IMR90. Protein adjusted IC50's were also determined in HCT-116.
HCT-116 or IMR90 cells were recovered from sub-confluent plates by trypsinization and 1,000 or 4,000 cells, respectively, were plated in 24-well dishes and incubated overnight at 37° C., 5% CO2. HCT-116 cells were cultured in RPMI-1640, 10% FCS, and IMR90 cells were cultured in Minimum Essential Medium-alpha, 10% FCS. After overnight incubation to allow adherence, the media was aspirated from each well and replaced with media containing a test compound at a concentration from 0 to 250 nM, spanning a total of 7 doses. The plates were returned to the incubator and cultured for an additional 72 hours (3 days). […] After 72-hours incubation with the test compound, the cells were washed twice with 1×PBS, taking special care to remove all residual buffer.
A 5 μM Calcein AM solution was prepared by dissolving a 50 μg aliquot of Calcein (Molecular Probes catalog # C3100) in 50 μl DMSO. After the Calcein had completely dissolved (10 minutes at room temperature), it was diluted into 10 ml PBS. Calcein/PBS (0.5 ml) was added to each well. The plates were incubated for 75 minutes at 37° C. (protected from light) and the fluorescent signal was read on a fluorescent plate reader (excitation 485/20 and emission 530/25).

A further experiment addresses T1, Cdc2/cyclin B (Homo sapiens, UniProt P06493).
T1 construct: purchased
Nature of the experiment: Cdc2/cyclin B kinase assay (Histone H1, TCA precipitation). The experiment is classed as biochemical. Conditions: Table 6. An excerpt:
(§1) Enzymes: Cdc2/cyclin B was obtained from commercial sources. Cdk2/his-cyclin Eshort was expressed in Sf9 cells. Cdk2/cyclin A, cdk4/cyclin D1, and cdk6/cyclin D2 were expressed in Sf9 cells. Protein kinase A (catalytic subunit, from bovine heart) and protein kinase C (mixed isozymes from rat brain) were obtained from commercial sources.
(§2) Substrates: Histone H1 was from commercial sources. GST-Rb is glutathione-S-transferase fused to the N-terminal of residues 379-928 of the Rb protein.
Assays: Cdc2/cyclinB activity was determined by measuring incorporation of radio-activity from adenosine [γ-^32P]triphosphate into Histone H1 using a TCA precipitation assay. Cdc2/cyclin B kinase and Histone H1 were obtained from commercial sources. […] The filter was washed ten times with 25% (w/v) trichloroacetic acid, and the amount of incorporated ^32P was determined by scintillation counting after adding 100 μL scintillant (Microscint 20, Packard Instruments). Relative activity was determined by dividing the amount of radioactivity incorporated in the presence of compound by the amount of radioactivity incorporated in a control experiment containing DMSO alone but no compound. The background radioactivity, determined in an experiment containing 50 mM EDTA in place of compound, was subtracted from all results before calculations. […]

Another experiment deals with T2, Cdk4/cyclin D1 (Homo sapiens, UniProt P11802).
T2 construct: made in house; host or cells: Sf9 insect cells
Nature of the experiment: Cdk4/cyclin D1 kinase assay (GST-Rb, glutathione-sepharose capture). The experiment is classed as biochemical. As to conditions: Table 6.
Source text: as §1, §2
Cdk2/cyclin E, Cdk2/cyclin A, Cdk4/cyclin D1, and Cdk6/cyclin D2 activity was determined using a glutathione-sepharose capture assay. […] After washing the retained beads five time with phosphate-buffered saline containing 0.3% (w/v) Tween-20, the amount of ^33P incorporated was determined by scintillation counting after adding 100 μL scintillant. Relative activity was determined by dividing the amount of radioactivity incorporated in the presence of compound by the amount of radioactivity incorporated in a control experiment containing DMSO alone but no compound. The background radioactivity, determined in an experiment containing 50 mM disodium ethylenediamine tetraacetate in place of compound, was subtracted from all results before calculations.

Experiment [3] deals with protein kinase C (mixed isozymes from rat brain). The experiment in a line: Protein kinase C assay (Histone H1, TCA precipitation). It is filed as biochemical. Conditions: Table 5; read-out: PKC IC50. The method, then: as §1
Protein kinase C and protein kinase A were assayed using a TCA precipitation assay with Histone H1 as a substrate. For protein kinase A, the final assay contained 50 mM Tris, 10 mM MgCl2, 1 mM dithiothreitol, pH 7.5, 12 μM adenosine triphosphate, 10% (v/v) dimethylsulfoxide (from compounds), 20 μg Histone H1, 2 μCi [γ-^32P] adenosine triphosphate, 0.2 U protein kinase A in a 100 μL assay. A protein kinase C assay contained 50 mM Tris, 10 mM MgCl2, 1 mM dithiothreitol, 0.8 mM CaCl2, pH 7.5, 5 μM adenosine triphosphate, 10% (v/v) dimethylsulfoxide (from compounds), 20 μg Histone H1, 2 μCi [γ-^32P] adenosine triphosphate, 0.01 U protein kinase C in a 50 μL assay. The assays were started by the addition of enzyme, allowed to react for 10 min at 30° C., and stopped by adding 0.4 volumes of 237 mM disodium ethylenediamine tetraacetate, 105 mM adenosine triphosphate, pH 8.0. […] The filters were washed ten times with 25% (w/v) trichloroacetic acid, and the amount of incorporated [^32P]phosphate was determined by adding 100 μl Microscint and scintillation counting.

Bounds are passed on as bounds.

T1 sequence (P06493 whole entry, species assumed): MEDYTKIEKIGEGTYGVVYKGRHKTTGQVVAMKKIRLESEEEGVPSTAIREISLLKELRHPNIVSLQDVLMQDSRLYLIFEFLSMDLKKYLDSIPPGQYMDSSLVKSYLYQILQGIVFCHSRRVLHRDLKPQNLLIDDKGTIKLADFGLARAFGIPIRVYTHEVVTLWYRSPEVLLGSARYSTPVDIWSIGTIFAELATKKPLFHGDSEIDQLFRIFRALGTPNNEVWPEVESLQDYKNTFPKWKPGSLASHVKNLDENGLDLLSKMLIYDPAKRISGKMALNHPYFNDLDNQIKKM
T1 sequence (P14635 whole entry partner, species assumed): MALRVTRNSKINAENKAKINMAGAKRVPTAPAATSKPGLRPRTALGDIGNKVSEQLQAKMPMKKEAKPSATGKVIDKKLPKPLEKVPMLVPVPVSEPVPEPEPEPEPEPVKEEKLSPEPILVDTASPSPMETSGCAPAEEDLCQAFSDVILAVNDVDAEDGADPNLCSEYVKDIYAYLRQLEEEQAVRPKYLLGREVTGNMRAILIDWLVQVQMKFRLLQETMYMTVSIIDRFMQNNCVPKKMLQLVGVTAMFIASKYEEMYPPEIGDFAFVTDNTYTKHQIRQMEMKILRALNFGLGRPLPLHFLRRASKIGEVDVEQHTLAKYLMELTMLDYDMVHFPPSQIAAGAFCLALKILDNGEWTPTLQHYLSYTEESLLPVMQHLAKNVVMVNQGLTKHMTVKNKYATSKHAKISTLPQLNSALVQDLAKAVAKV
T2 sequence (P11802 whole entry, species assumed): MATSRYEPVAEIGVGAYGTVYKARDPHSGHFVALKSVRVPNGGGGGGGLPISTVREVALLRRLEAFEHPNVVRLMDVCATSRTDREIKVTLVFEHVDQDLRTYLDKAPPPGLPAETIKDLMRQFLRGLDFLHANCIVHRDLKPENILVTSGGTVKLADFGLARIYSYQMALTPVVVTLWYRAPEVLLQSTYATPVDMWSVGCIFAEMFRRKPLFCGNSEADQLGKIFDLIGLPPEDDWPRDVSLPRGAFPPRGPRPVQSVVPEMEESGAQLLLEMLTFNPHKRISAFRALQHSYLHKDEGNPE
T2 sequence (P24385 whole entry partner, species assumed): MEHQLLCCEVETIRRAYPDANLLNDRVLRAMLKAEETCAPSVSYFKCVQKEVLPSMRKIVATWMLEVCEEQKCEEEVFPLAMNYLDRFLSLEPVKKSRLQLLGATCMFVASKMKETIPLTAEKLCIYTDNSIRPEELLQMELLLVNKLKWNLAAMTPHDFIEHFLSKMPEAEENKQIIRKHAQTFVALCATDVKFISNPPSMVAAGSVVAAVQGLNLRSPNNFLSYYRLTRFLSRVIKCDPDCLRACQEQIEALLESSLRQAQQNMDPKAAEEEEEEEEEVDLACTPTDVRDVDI

`COCCN1CCN(Cc2ccc(-c3[nH]nc4c3C(=O)c3c(NC(=O)NN5CCOCC5)cccc3-4)cc2)CC1.Cl.Cl` [Compound B16, N-[3-(4-{[4-(2-methoxyethyl)piperazinyl]methyl}phenyl)-4-oxoindeno[2,3-d]pyrazol-5-yl](morpholin-4-ylamino)carboxamide dihydrochloride]: in the experiment on HCT-116 cells [1], the “Effect on cell cycle distribution” value was “Analogous results”. Further, the “Time within which IC50 is reached” value in the experiment with HCT-116 cells [2] lay within 30 to 60 min.
The IC50 is the concentration that inhibits the measured activity by half. As for `CC(C)c1nn(-c2c(Cl)cc(Cl)cc2Cl)c2nc(Cc3ccc(OCCO)cc3)[nH]c(=O)c12` [Compound A61], the IC50 with HCT-116 is below 100 nM.
Still for that read-out and setting: next, `CC(C)c1nn(-c2c(Cl)cccc2Cl)c2nc(Cc3ccc(OCCO)cc3)[nH]c(=O)c12` [Compound A59]: below 100 nM.
Consider `Cc1nc(Cc2nc3c(c(C(C)C)nn3-c3c(Cl)cccc3Cl)c(=O)[nH]2)cs1` [Compound A58], for which the IC50 with HCT-116 is below 100 nM.
As for `COc1ccc(Cc2nc3c(c(C(C)C)nn3-c3c(Cl)cccc3Cl)c(=O)[nH]2)cc1` [Compound A67], in the experiment with HCT-116, the concentration for half-maximal inhibition (IC50) was below 100 nM.
Take `CC(C)N1CCN(C(=O)COc2ccc(-c3[nH]nc4c3C(=O)c3c(NC(=O)NN5CCOCC5)cccc3-4)cc2)CC1.Cl` [Compound A37]: the “Effect on cell cycle distribution” value in the experiment with HCT-116 cells [1] was “terminally arrested in G1 and G2, with evidence of apoptosis and endo-reduplication”.
With `CC(C)c1nn(-c2c(Cl)cc(Cl)cc2Cl)c2nc(Cc3ccc(NS(=O)(=O)CCCN4CCN(C(C)C)CC4)cc3)[nH]c(=O)c12` [Compound A39], the half-inhibitory concentration (IC50) with HCT-116 is below 100 nM.
Take `CC(C)c1nn(-c2c(Cl)cccc2Cl)c2nc(Cc3ccc(OCCOC(=O)[C@@H](N)C(C)C)cc3)[nH]c(=O)c12` [Compound A60]: the concentration for half-maximal inhibition (IC50) was below 1000 nM against Cdc2/cyclin B and below 10 µM against Cdk4/cyclin D1.
Regarding `CC(C)c1nn(-c2c(Cl)cccc2Cl)c2nc(Cc3ccc(O)c(CN4CCN(C(C)C)CC4)c3)[nH]c(=O)c12` [Compound C], the half-maximal inhibitory concentration (IC50) in experiment [3] is above 10 µM.
Regarding `CC(C)N1CCN(CCOc2ccc(-c3[nH]nc4c3C(=O)c3c(NC(=O)NN5CCOCC5)cccc3-4)cc2)CC1` [E], the IC50 in experiment [3] was below 10 µM.
Regarding `CC(C)c1nn(-c2c(Cl)cc(Cl)cc2Cl)c2nc(Cc3ccc(NS(=O)(=O)CCCN4CCCC4)cc3)[nH]c(=O)c12` [Compound A38], the IC50 in the experiment on HCT-116 was below 100 nM.
